According to patent publication US11518750B2, “3-methylideneoxan-4-one compounds and substituted derivatives thereof as inhibitors of telomerase” (NORTHWESTERN UNIVERSITY, priority 2019, dated 2022):

What follows are compounds tested on tcTERT (assay: Protease digestion and mass spectrometry of treated tcTERT). Conditions: proteolysis and tandem mass spectrometry.
Type: binding, Tribolium castaneum
Method: Protease Digestion and Mass Spectrometry Analysis. tcTERT (50 μg, ˜600 pmol) was treated with chrolactomycin, NU-1, helenalin, costunolide or DMSO for 1 hr at 37° C. The reaction was diluted with ammonium bicarbonate buffer (pH 8.0), then reduced for 30 min at 56° C. with 10 mM DTT. After cooling to 23° C., the protein was alkylated with 25 mM iodoacetamide for 30 min at 23° C. in the dark, followed by trypsin digestion (2.5 μg, Promega) overnight at 37° C. Digested peptides (˜2 pmol) were injected onto a self-packed precolumn (4 cm POROS10R2) and eluted into the mass spectrometer (LTQ Orbitrap Velos, Thermo Fisher). Peptides were subjected to MS^2 by CAD (electron multiplier detection, relative collision energy 35%, q=0.25).

Row | Structure (SMILES) | adduct formation with tcTERT peptides
1 | C=C1C(=O)O[C@@H]2/C=C(\C)CC/C=C(\C)CC[C@@H]12 [costunolide] | no adduct formation
2 | C=C1C(=O)O[C@@H]2C[C@@H](C)[C@@H]3C=CC(=O)[C@@]3(C)[C@@H](O)[C@H]12 [helenalin] | no adduct formation

These compounds were tested against T1, telomerase (MCF-7 cell lysates) (Homo sapiens, UniProt O14746) (assay: TRAP assay in cell lysates (PCR-based telomerase activity assay)). Conditions: IC50, Table 2, C-3 group; TRAP assay.
T1 construct: endogenous in cells; host or cells: MCF-7
T1 sequence (O14746 whole entry): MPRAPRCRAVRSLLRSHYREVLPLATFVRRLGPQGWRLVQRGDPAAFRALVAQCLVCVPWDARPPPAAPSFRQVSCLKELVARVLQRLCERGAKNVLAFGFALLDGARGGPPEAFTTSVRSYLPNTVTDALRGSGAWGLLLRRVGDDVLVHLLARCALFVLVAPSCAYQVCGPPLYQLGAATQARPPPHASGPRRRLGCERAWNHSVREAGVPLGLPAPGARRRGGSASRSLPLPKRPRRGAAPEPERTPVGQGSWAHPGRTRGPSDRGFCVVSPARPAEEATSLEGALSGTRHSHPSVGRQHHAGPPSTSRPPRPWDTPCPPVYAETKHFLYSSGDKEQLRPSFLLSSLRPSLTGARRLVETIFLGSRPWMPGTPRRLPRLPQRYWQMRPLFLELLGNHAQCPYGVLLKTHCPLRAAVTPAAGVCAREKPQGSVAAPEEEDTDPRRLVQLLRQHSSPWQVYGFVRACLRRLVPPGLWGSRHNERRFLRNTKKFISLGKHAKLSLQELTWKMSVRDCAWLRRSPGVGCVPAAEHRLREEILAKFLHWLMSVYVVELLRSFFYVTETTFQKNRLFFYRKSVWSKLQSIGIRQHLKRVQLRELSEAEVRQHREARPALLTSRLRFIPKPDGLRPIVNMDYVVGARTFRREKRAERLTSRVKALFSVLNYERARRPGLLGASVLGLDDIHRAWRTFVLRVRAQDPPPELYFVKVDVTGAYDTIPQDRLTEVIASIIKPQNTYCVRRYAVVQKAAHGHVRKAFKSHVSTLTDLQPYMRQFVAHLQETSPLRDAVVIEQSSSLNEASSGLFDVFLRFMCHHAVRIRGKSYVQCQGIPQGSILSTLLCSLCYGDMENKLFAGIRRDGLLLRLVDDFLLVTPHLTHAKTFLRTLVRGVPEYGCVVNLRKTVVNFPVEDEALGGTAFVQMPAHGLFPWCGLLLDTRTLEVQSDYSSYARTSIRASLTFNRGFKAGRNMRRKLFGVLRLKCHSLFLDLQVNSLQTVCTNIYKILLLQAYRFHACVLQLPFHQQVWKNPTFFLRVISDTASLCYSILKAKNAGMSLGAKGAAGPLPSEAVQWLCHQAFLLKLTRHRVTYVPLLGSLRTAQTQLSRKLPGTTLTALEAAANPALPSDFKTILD
T1 sequence (O60832 whole entry partner): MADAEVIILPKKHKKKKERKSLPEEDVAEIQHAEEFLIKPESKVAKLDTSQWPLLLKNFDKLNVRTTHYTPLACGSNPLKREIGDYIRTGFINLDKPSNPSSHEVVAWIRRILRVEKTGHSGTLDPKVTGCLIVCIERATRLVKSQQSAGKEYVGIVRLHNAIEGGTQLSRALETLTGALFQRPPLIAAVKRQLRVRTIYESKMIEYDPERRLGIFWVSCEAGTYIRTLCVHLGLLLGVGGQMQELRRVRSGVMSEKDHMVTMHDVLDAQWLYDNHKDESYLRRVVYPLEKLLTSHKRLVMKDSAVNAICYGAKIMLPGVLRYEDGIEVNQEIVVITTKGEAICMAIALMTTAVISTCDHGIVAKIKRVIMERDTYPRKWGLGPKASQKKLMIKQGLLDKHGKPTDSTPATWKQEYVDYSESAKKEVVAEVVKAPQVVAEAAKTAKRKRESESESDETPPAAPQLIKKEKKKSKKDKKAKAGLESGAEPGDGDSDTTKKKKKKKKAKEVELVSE
T1 sequence (Q9NPE3 whole entry partner): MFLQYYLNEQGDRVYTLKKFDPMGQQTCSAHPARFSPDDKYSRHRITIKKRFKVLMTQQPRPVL
T1 sequence (Q9NX24 whole entry partner): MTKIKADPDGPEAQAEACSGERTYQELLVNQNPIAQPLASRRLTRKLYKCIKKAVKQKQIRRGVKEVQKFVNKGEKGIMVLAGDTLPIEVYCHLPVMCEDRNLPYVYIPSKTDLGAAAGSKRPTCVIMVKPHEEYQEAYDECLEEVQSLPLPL
T1 sequence (Q9NY12 whole entry partner): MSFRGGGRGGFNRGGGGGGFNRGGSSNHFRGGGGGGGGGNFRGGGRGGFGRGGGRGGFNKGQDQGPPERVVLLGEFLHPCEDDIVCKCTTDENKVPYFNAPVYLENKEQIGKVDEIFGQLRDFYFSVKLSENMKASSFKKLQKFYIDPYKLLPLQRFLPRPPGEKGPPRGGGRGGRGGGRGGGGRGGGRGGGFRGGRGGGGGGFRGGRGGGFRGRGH
T1 sequence (Q9BUR4 whole entry partner): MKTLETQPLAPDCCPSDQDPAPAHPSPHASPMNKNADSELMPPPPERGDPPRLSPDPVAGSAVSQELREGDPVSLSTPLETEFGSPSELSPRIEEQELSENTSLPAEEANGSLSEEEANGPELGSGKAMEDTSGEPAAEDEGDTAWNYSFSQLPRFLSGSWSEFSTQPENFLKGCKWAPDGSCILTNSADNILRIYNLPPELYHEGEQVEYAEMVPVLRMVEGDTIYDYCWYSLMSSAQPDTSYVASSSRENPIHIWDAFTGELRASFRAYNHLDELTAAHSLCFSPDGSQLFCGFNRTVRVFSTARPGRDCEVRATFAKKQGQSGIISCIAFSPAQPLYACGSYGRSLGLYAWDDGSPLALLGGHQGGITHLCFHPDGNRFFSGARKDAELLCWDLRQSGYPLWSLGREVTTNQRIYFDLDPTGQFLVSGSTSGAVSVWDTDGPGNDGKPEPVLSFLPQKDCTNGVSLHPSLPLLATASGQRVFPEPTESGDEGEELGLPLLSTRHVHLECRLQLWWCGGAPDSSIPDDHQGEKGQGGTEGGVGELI
Type: biochemical
Text: In developing a preliminary structural activity relationship (SAR) for the chrologs, we divided the structure of the pyran into four main components: (1)C-2 substituents (carboxylic acid of chrolactomycin); (2) C-6 substituents (chrolactomycin macrolide loop); (3) C-3 substituents (fused γ-lactone of chrolactomycin) and (4) inclusion of the exocyclic methylene group. We carried out systematic modifications of each structural unit and evaluated the effects on telomerase activity as measured by a PCR-based telomerase activity assay (TRAP assay).^16
Telomeric Repeat Amplification Protocol Assay. The telomeric repeat amplification protocol (TRAP) assay was performed using the TRAPeze RT Telomerase Detection Kit (EMD Millipore) and iTaq DNA polymerase (Bio-Rad) according to the manufacturer's protocol.
Cell Lysate TRAP Analysis. MCF-7, HeLa, ACHN, MDA-MB231 and A549 cells were cultured in DMEM media supplemented with 10% Fetal Bovine Serum (FBS), 1% pen/strep and with 5% CO2 and 37° C. Cells were plated in 2×T75 flasks and cultured for 3 days. Flasks were rinsed twice with PBS and treated with 0.05% trypsin-EDTA (Thermo Fisher) to detach cells. […] Cell extracts were transferred to microcentrifuge tubes, 200 μl/tube, and centrifuged at 12,000×g for 20 min at 4° C. to remove cell debris. Stock solutions of compounds were made in DMSO with a concentration of 100 mM and a […] dilution was performed in DMSO in a 96-well plate to produce compound solutions of 100, 10, 1, 0.1, 0.01, and 0.001 mM (1000× of the final concentration). The 1000× stock solutions of the compound samples were transferred to a 96-well plate using the Echo 550 (Labcyte) and then diluted with the cell extracts to yield final compound concentrations of 100, 10, 1, 0.1, 0.01, and 0.001 μM. The plate was covered and shaken at room temperature for 30 min. For TRAPeze reactions, a “master mix” was prepared according to the TRAPeze protocol, containing 5 μl of the TRAPeze reaction mix; 0.4 μl Taq polymerase; 17.6 μl PCR grade, nuclease-free water. The master mix and treated cell extracts were transferred using the Mosquito Crystal Liquid Handling System (TTP Labtech) into separate wells in a white, 384-well RT-PCR plate. Each well contained 1.2 μl of the master mix and 1.2 μl of the treated cell extract to give a final volume of 2.4 μl, with two duplicates for each sample. The RT-PCR plate was then sealed and centrifuged for 5 min. A sample containing only CHAPS Lysis Buffer was included as negative control. The TSR8 standards were included to generate a standard curve. Samples were amplified in a CFW384 RT-PCR (BioRad) detection system with PCR parameters of 30 min at 30° C. for 1 cycle, 2 min at 95° C. for 1 cycle, and then 45 cycles of 15 s at 94° C., 60 s at 59° C., and 10 s at 45° C. Real-time fluorescent data was obtained during the 10 s at 45° C. step. The number of cycles at which the fluorescence level reached a threshold (Ct) was averaged between the duplicates for each sample. Using a calibration curve obtained from the TSR8 standards, a linear equation was obtained to convert the Ct values into arbitrary telomerase activity units, which were plotted as a function of compound concentration to construct dose-response curves and calculate IC50.

Row | Structure (SMILES) | IC50 [µM]
3 | C=C1C(=O)[C@@](C)(C(=O)OCCCC)[C@@H](CCc2ccc(NC(C)=O)cc2)O[C@H]1C (racemic) [Compound 4n, (±) butyl (2S,3R,6R)-2-(4-acetamidophenethyl)-3,6-dimethyl-5-methylene-4-oxotetrahydro2H-pyran-3-carboxylate] | 85

Same assay, conditions: TRAP assay, MCF-7 cell lysates; read-out: IC50

Row | IC50 [µM] | Structure (SMILES)
4 | 1.5 | C=C1C(=O)[C@](C)(C(=O)OC)[C@H](CCc2ccc(NC(C)=O)cc2)O[C@@H]1C (racemic) [Compound 4a, (±) methyl (2S,3R,6R)-2-(4-acetamidophenethyl)-3,6-dimethyl-5-methylene-4-oxotetrahydro2H-pyran-3-carboxylate]
5 | 0.9 | C=C1C(=O)C(C)(C(=O)OC)C(CCc2ccc(NC(C)=O)cc2)OC1C (single isomer, unassigned) [enantiopure para N-acetylphenethyl analogue]
6 | 4.5 | C=C1C(=O)C(C)(C(=O)OC)C(CCc2ccc(NC(C)=O)cc2)OC1C (single isomer, unassigned) [opposite antipode]
7 | 2.1 | C=C1C(=O)[C@]2(C)C(=O)O[C@@]34C[C@H](C)C(C(=O)O)=C[C@@H]3CCC[C@@H](C)C[C@@H](C)[C@H]1O[C@H]24 [okilactomycin, reference compound]

Same assay, conditions: Table 1, C-2 and C-6 groups; TRAP assay; read-out: IC50

Row | IC50 [µM] | Structure (SMILES)
8 | 1.5 | C=C1C(=O)[C@](C)(C(=O)OC)[C@H](CCc2ccc(NC(C)=O)cc2)O[C@@H]1C (racemic) [Compound 4a, (±) methyl (2S,3R,6R)-2-(4-acetamidophenethyl)-3,6-dimethyl-5-methylene-4-oxotetrahydro2H-pyran-3-carboxylate]
9 | > 100 | C=C1C(=O)[C@](C)(C(=O)OC)[C@H](CCc2ccccc2)O[C@@H]1C (racemic) [Compound 4b, (±) methyl (2S,3R,6R)-3,6-dimethyl-5-methylene-4-oxo-2-phenethyltetrahydro-2H-pyran-3 carboxylate]
10 | 42 | C=C1C(=O)[C@](C)(C(=O)OC)[C@H](CCc2ccc(F)cc2)O[C@@H]1C (racemic) [Compound 4d, (±) methyl (2S,3R,6R)-2-(4-fluorophenethyl)-3,6-dimethyl-5-methylene-4-oxotetrahydro-2H pyran-3-carboxylate]
11 | 55 | C=C1C(=O)[C@@](C)(C(=O)OC)[C@@H](CCc2ccc(C(F)(F)F)cc2)O[C@H]1C (racemic) [Compound 4e, (±) methyl (2S,3R,6R)-3,6-dimethyl-5-methylene-4-oxo-2-(4(trifluoromethyl)phenethyl)tetrahydro-2H-pyran-3-carboxylate]
12 | 62 | C=C1C(=O)[C@](C)(C(=O)OC)C(CCc2ccc(OC)cc2)O[C@@H]1C (mixture of isomers) [Compound 4f, (±) methyl (2S,3R,6R)-2-(4-methoxyphenethyl)-3,6-dimethyl-5-methylene-4-oxotetrahydro2H-pyran-3-carboxylate]
13 | 11 | C=C1C(=O)[C@@](C)(C(=O)OC)[C@@H](CCc2cccc(NC(C)=O)c2)O[C@H]1C (racemic) [Compound 4g, (±) methyl (2S,3R,6R)-2-(3-acetamidophenethyl)-3,6-dimethyl-5-methylene-4-oxotetrahydro2H-pyran-3-carboxylate]
14 | > 100 | C=C1C(=O)[C@@](C)(C(=O)OC)[C@@H](CCc2cccc(F)c2)O[C@H]1C (racemic) [Compound 4h, (±) methyl (2S,3R,6R)-2-(3-fluorophenethyl)-3,6-dimethyl-5-methylene-4-oxotetrahydro-2H pyran-3-carboxylate]

More lines, now with the values behind:

Row | Structure (SMILES) | IC50 [µM]
15 | C=C1C(=O)[C@](C)(C(=O)OC)[C@H](CC(C)C)O[C@@H]1C (racemic) [Compound 4c, (±) methyl (2S,3R,6R)-2-isobutyl-3,6-dimethyl-5-methylene-4-oxotetrahydro-2H-pyran-3 carboxylate] | > 100
16 | C=C1C(=O)[C@@](C)(C(=O)OC)[C@@H](CCc2ccc(NC(C)=O)cc2)O[C@H]1CC(C)C (racemic) [Compound 4i, (±) methyl (2S,3R,6R)-2-(4-acetamidophenethyl)-6-isobutyl-3-methyl-5-methylene-4oxotetrahydro-2H-pyran-3-carboxylate] | 45
17 | C=C1C(=O)[C@@](C)(C(=O)OC)[C@@H](CCc2ccc(NC(C)=O)cc2)O[C@H]1CCc1ccccc1 (racemic) [Compound 4j, (±) methyl (2S,3R,6R)-2-(4-acetamidophenethyl)-3-methyl-5-methylene-4-oxo-6phenethyltetrahydro-2H-pyran-3-carboxylate] | > 100

Same assay, conditions: Table 2, C-3 group; TRAP assay; read-out: IC50

Row | IC50 [µM] | Structure (SMILES)
18 | 1.5 | C=C1C(=O)[C@](C)(C(=O)OC)[C@H](CCc2ccc(NC(C)=O)cc2)O[C@@H]1C (racemic) [Compound 4a, (±) methyl (2S,3R,6R)-2-(4-acetamidophenethyl)-3,6-dimethyl-5-methylene-4-oxotetrahydro2H-pyran-3-carboxylate]
19 | 45 | C=C1C(=O)[C@@](C)(C(=O)OC(C)C)[C@@H](CCc2ccc(NC(C)=O)cc2)O[C@H]1C (racemic) [Compound 4k, (±) isopropyl (2S,3R,6R)-2-(4-acetamidophenethyl)-3,6-dimethyl-5-methylene-4oxotetrahydro-2H-pyran-3-carboxylate]
20 | 75 | C=C1C(=O)[C@@](C)(C(=O)OCC2CC2)[C@@H](CCc2ccc(NC(C)=O)cc2)O[C@H]1C (racemic) [Compound 4l, (±) cyclopropylmethyl (2S,3R,6R)-2-(4-acetamidophenethyl)-3,6-dimethyl-5-methylene-4oxotetrahydro-2H-pyran-3-carboxylate]
21 | 25 | C=C1C(=O)[C@](C)(C(=O)OCCOC)[C@@H](CCc2ccc(NC(C)=O)cc2)O[C@H]1C [Compound 4p]

The next lines start with the compound.

Row | Structure (SMILES) | IC50 [µM]
22 | C=C1C(=O)[C@](C)(C(=O)OCc2ccccc2)C(CCc2ccc(NC(C)=O)cc2)O[C@@H]1C (mixture of isomers) [Compound 4m, (±) benzyl (2S,3R,6R)-2-(4-acetamidophenethyl)-3,6-dimethyl-5-methylene-4-oxotetrahydro2H-pyran-3-carboxylate] | 35
23 | C=C1C(=O)[C@@](CC)(C(=O)OC)[C@@H](CCc2ccc(NC(C)=O)cc2)O[C@H]1C (racemic) [Compound 4q, (±) methyl (2S,3R,6R)-2-(4-acetamidophenethyl)-3-ethyl-6-methyl-5-methylene-4oxotetrahydro-2H-pyran-3-carboxylate] | 15
24 | C=C1C(=O)[C@@](C(=O)OC)(C(C)C)[C@H](CCc2ccc(NC(C)=O)cc2)O[C@@H]1C (racemic) [Compound 4r, (±) methyl (2S,3R,6R)-2-(4-acetamidophenethyl)-3-isopropyl-6-methyl-5-methylene-4oxotetrahydro-2H-pyran-3-carboxylate] | 62
